For 24 compounds, IC50 and Activity results are on record in ChEMBL document CHEMBL3751767, “Synthesis, in vitro and in vivo anticancer activities of novel 4-substituted 1,2-bis(4-chlorophenyl)-pyrazolidine-3,5-dione derivatives” (Medchemcomm, 2015).

Assay [1] in a line: Cytotoxicity against human EC109 cells assessed as reduction in cell viability after 72 hrs by MTT assay. The assay is classed as functional, cell-based. The note with it: ECa-109, 72 h.
Assay [2] is described as follows: Cytotoxicity against human SMMC7721 cells assessed as reduction in cell viability after 72 hrs by MTT assay. It counts as functional, cell-based. The note with it: SMMC-7721, 72 h.
Assay [3] can be described thus: Cytotoxicity against human MGC803 cells assessed as reduction in cell viability after 72 hrs by MTT assay. It counts as functional, cell-based. The settings on record: MGC-803, 72 h. A general note: Formazan colour is commonly taken as a measure of viable cells.
The subject of another assay is MCF7. In words: Cytotoxicity against human MCF7 cells assessed as reduction in cell viability after 72 hrs by MTT assay. The note with it: MCF7, 72 h. It counts as functional, cell-based.
The nature of assay [4]: Antitumor activity against human MGC803 cells xenografted in nude mouse assessed as reduction in tumor weight at 30 mg/kg, po qd for 28 days relative to control. The assay is classed as functional, MGC-803. On the set-up: scale not given: the % may be the effect or the level left. A general note: In xenograft studies the graft and the host belong to different species.

By IC50 is commonly meant the concentration needed to halve the response being measured. For `CC(=C1C(=O)N(c2ccc(Cl)cc2)N(c2ccc(Cl)cc2)C1=O)c1ccc(O)cc1`, the IC50 in assay [1] was 55.6 µM; in assay [2] it was 57 µM; in assay [3], 42.8 µM; in the assay with MCF7, 76.5 µM.
For the compound `CCCCCOC(=O)Nc1nc(=O)n([C@@H]2O[C@H](C)[C@@H](O)[C@H]2O)cc1F` [CAPECITABINE], the Activity in assay [4] was determined as 62.7%.
For the compound `O=C1C(=Cc2c[nH]c3ccccc23)C(=O)N(c2ccc(Cl)cc2)N1c1ccc(Cl)cc1`, the IC50 in assay [1] worked out at 23.4 µM; in assay [2] it was 19.6 µM; in assay [3] it was 21.8 µM; in the assay on MCF7, 34.2 µM.
The corresponding values for `COc1ccccc1C=C1C(=O)N(c2ccc(Cl)cc2)N(c2ccc(Cl)cc2)C1=O` are 30.4 µM, 25.8 µM, 28.6 µM and 26.3 µM.
For `O=C1C(=Cc2ccco2)C(=O)N(c2ccc(Cl)cc2)N1c1ccc(Cl)cc1`, in that order: 14.3 µM, 19.5 µM, 12.8 µM and 20.3 µM.
The corresponding values for `O=C1C(=Cc2ccc(Cl)cc2Cl)C(=O)N(c2ccc(Cl)cc2)N1c1ccc(Cl)cc1` are 60.2 µM, more than 128 µM, more than 128 µM and more than 128 µM.
With `O=C1C(=Cc2ccc(F)cc2)C(=O)N(c2ccc(Cl)cc2)N1c1ccc(Cl)cc1`, the IC50 worked out at 35.6 µM in assay [1], 23.3 µM in assay [2], 26 µM in assay [3] and 31.4 µM in the assay on MCF7.
For `COc1cc(C=C2C(=O)N(c3ccc(Cl)cc3)N(c3ccc(Cl)cc3)C2=O)cc(OC)c1OC`, the IC50 stood at 10.1 µM in assay [1], 29.5 µM in assay [2], 17.3 µM in assay [3] and 16.2 µM with MCF7.
For `COc1ccc(C=C2C(=O)N(c3ccc(Cl)cc3)N(c3ccc(Cl)cc3)C2=O)cc1OC`, in that order: more than 128 µM, more than 128 µM, more than 128 µM and more than 128 µM.
On to `CCC(C)=C1C(=O)N(c2ccc(Cl)cc2)N(c2ccc(Cl)cc2)C1=O`, for which the IC50 in assay [1] worked out at 41.1 µM; in assay [2], 49.2 µM; in assay [3], 66.5 µM; with MCF7, 41.6 µM.
The corresponding values for `COc1ccc(C=C2C(=O)N(c3ccc(Cl)cc3)N(c3ccc(Cl)cc3)C2=O)cc1` are more than 128 µM, more than 128 µM, more than 128 µM and more than 128 µM.
For `CN(C)c1ccc(C=C2C(=O)N(c3ccc(Cl)cc3)N(c3ccc(Cl)cc3)C2=O)cc1`, in that order: more than 128 µM, more than 128 µM, 80.2 µM and more than 128 µM.
The corresponding values for `O=C1C(=Cc2ccc(O)cc2)C(=O)N(c2ccc(Cl)cc2)N1c1ccc(Cl)cc1` are 34.2 µM, 20.6 µM, 19.5 µM and 23.2 µM.
In the case of `COc1cccc(C=C2C(=O)N(c3ccc(Cl)cc3)N(c3ccc(Cl)cc3)C2=O)c1`, the IC50 in assay [1] was 29 µM; in assay [2], 30.2 µM; in assay [3], 26.6 µM; in the assay on MCF7, 18.1 µM.
For `COc1cccc(C=C2C(=O)N(c3ccc(Cl)cc3)N(c3ccc(Cl)cc3)C2=O)c1OC`, in that order: 6.8 µM, 14.1 µM, 29.6 µM and 11.9 µM.
The corresponding values for `O=c1[nH]cc(F)c(=O)[nH]1` [FLUOROURACIL] are 15.9 µM, 14.2 µM, 9.2 µM and 13.5 µM.
For `CC(C)=C1C(=O)N(c2ccc(Cl)cc2)N(c2ccc(Cl)cc2)C1=O`, in that order: 42.1 µM, 45.6 µM, 39 µM and 39.6 µM.
As to `O=C1C(=Cc2ccccc2)C(=O)N(c2ccc(Cl)cc2)N1c1ccc(Cl)cc1`, the IC50 was found to be 32.7 µM in assay [1], 26.2 µM in assay [2], 27.2 µM in assay [3] and 20.2 µM with MCF7.
On to `COc1cccc(C=C2C(=O)N(c3ccc(Cl)cc3)N(c3ccc(Cl)cc3)C2=O)c1O`, for which the half-maximal inhibitory concentration (IC50) in assay [1] stood at 39 µM; in assay [2] it was 64.9 µM; in assay [3] it was 24.3 µM; with MCF7, 26.7 µM.
For `O=C1C(=Cc2ccc(F)c(F)c2)C(=O)N(c2ccc(Cl)cc2)N1c1ccc(Cl)cc1`, in that order: 13.1 µM, 35.8 µM, 35.7 µM and 22 µM.
In the case of `O=C1C(=Cc2ccc(Br)cc2)C(=O)N(c2ccc(Cl)cc2)N1c1ccc(Cl)cc1`, the IC50 in assay [1] was 12.3 µM; in assay [2] it was 16.6 µM; in assay [3] it was 16.9 µM; in the assay on MCF7 it was 30.4 µM.
The corresponding values for `O=C1C(=Cc2ccc(Cl)cc2)C(=O)N(c2ccc(Cl)cc2)N1c1ccc(Cl)cc1` are 17.3 µM, 30.9 µM, 32.6 µM and 28.5 µM.
For `COc1cc(C=C2C(=O)N(c3ccc(Cl)cc3)N(c3ccc(Cl)cc3)C2=O)ccc1O`, in that order: 7.1 µM, 64.9 µM, 21.8 µM and 22.8 µM.
On to `O=C1C(=Cc2cccc(Cl)c2)C(=O)N(c2ccc(Cl)cc2)N1c1ccc(Cl)cc1`, for which the IC50 in assay [1] was found to be 22.6 µM; in assay [2], 20.2 µM; in assay [3], 14.4 µM; in the assay on MCF7 it was 18.3 µM.
